Measured values reported in patent publication US11207269B2, “Medical use of sPLA2 hydrolysable liposomes” (priority 2009, dated 2021).

Legend:
[1] = comparison value for cisplatin, within 3 hours; cited from earlier work
[2] = test system: human breast carcinoma cell line MT-3; experiment: Efficacy in mice: MT-3 breast xenografts on nude mice; assay type: in vivo, NMRI nude female mice; settings: 4 mg/kg/inj. weekly i.v.; treated tumors divided with control tumors; Cisplatin at day 31, LiPlaCis at day 26
Procedure: NMRI nude female mice (6-8 weeks) were inoculated subcutaneously into the left flank with 1*10^7 cells of the human breast carcinoma cell line MT-3. Only mice carrying exponentially growing tumors were selected for the study. […] Tumor growth was assessed three times a week by measuring two perpendicular diameters and tumor growth was normalized for differing starting sizes by calculating relative tumor volume. Body weight was measured three times a week. Blood samples were taken four days after the first injection to estimate white blood cells and thrombocytes by Coulter counter.

Structure (SMILES): N.N.[Cl][Pt][Cl] [Cisplatin, cisplatin]
- urinary excretion [1]: above 90%
- Optimum T/C (%) [at day] [2]: 71%
